Test results as given in patent US20200369728A1, “PEPTIDOMIMETIC MACROCYCLES AND USES THEREOF” (Aileron Therapeutics, Inc., priority 2015, published 2020).
Bridge positions count the residues as written; N and C are the ends. Square brackets hold non-standard residues; d marks the D form. Peptide text beside a SMILES is read from it. R8 = C=CCCCCCC[C@@](C)(N)C(=O)O; S5 = C=CCCC[C@](C)(N)C(=O)O

Assays:
Caspase 3 = Caspase 3 detection assay in SJSA1 cells; format: cell-based; conditions: SJSA1, 48 h, Caspase 3 activation over DMSO-treated cells
RKO = assay: Cell viability assay (MTT), RKO; conditions: read-out: RKO EC50 (72 h)

Structure (SMILES)	caspase 3 μM (Caspase 3; 3 μM)	caspase 10 μM (Caspase 3; 10 μM)	caspase 30 μM (Caspase 3; 30 μM)	EC50 (RKO) [µM]
CC(=O)N[C@@H](CC(C)C)C(=O)N[C@H](C(=O)N[C@@H](Cc1ccccc1)C(=O)N[C@]1(C)CCCCCCC=CCCC[C@@](C)(C(=O)N[C@@H](C)C(=O)N[C@H](C(=O)NCC(N)=O)C(C)C)NC(=O)[C@H](CC(C)C)NC(=O)[C@H](CCC(N)=O)NC(=O)[C@H](C)NC(=O)[C@H](Cc2c[nH]c3ccccc23)NC(=O)[C@H](Cc2ccc(O)cc2)NC(=O)[C@H](C)NC1=O)[C@@H](C)O (single isomer, unassigned) [compound 109]	4	16	25	< 5
CSCC[C@H](NC(=O)[C@H](C)NC(=O)[C@H](CO)NC(=O)[C@]1(C)CCCC=CCCCCCC[C@@](C)(NC(=O)[C@H](Cc2ccccc2)NC(=O)[C@@H](NC(=O)[C@H](CC(C)C)NC(C)=O)[C@@H](C)O)C(=O)N[C@@H](C)C(=O)N[C@@H](Cc2ccc(O)cc2)C(=O)N[C@@H](Cc2c[nH]c3ccccc23)C(=O)N[C@@H](C)C(=O)N[C@@H](CCC(N)=O)C(=O)N[C@@H](CC(C)C)C(=O)N1)C(N)=O [compound 5] (Ac-LTF[R8]AYWAQL[S5]SAM-NH2; staple 4-11)	–	–	–	< 5
CCCC[C@H](NC(=O)[C@H](C)NC(=O)[C@H](C)NC(=O)[C@]1(C)CCC/C=C/CCCCCC[C@@](C)(NC(=O)[C@H](Cc2ccccc2)NC(=O)[C@@H](NC(=O)[C@H](CC(C)C)NC(C)=O)[C@@H](C)O)C(=O)N[C@@H](C)C(=O)N[C@@H](Cc2ccc(O)cc2)C(=O)N[C@@](C)(Cc2c[nH]c3ccccc23)C(=O)N[C@@H](C)C(=O)N[C@@H](CCC(N)=O)C(=O)N[C@@H](CC(C)C)C(=O)N1)C(=O)N[C@@H](C)C(N)=O [compound 388]	–	–	–	15 to 30
CC(C)C[C@H](NC(=O)CN(C)C)C(=O)N[C@H](C(=O)N[C@@H](Cc1ccccc1)C(=O)N[C@]1(C)CCCCCCC=CCCC[C@@](C)(C(=O)N[C@@H](CO)C(=O)N[C@@H](C)C(=O)N[C@@H](C)C(N)=O)NC(=O)[C@H](CC2CCC2)NC(=O)[C@H](CCC(N)=O)NC(=O)[C@H](C)NC(=O)[C@H](Cc2c[nH]c3ccccc23)NC(=O)[C@H](Cc2ccc(O)cc2)NC(=O)[C@H](CCC(=O)O)NC1=O)[C@@H](C)O [compound 435]	–	–	–	15 to 30
CC(C)C[C@H](NC(=O)CN(C)C)C(=O)N[C@H](C(=O)N[C@@H](Cc1ccccc1)C(=O)N[C@]1(C)CCCCCC/C=C/CCC[C@@](C)(C(=O)N[C@@H](C)C(=O)N[C@@H](C)C(=O)N[C@@H](C)C(=O)N[C@@H](C)C(=O)N[C@@H](C)C(=O)N[C@H](C)C(N)=O)NC(=O)[C@H](CC(C)C)NC(=O)[C@H](CCC(N)=O)NC(=O)[C@H](C)NC(=O)[C@H](Cc2c[nH]c3ccccc23)NC(=O)[C@H](Cc2ccc(O)cc2)NC(=O)[C@H](C)NC1=O)[C@@H](C)O [compound 437]	–	–	–	< 5
CCCC[C@H](NC(=O)[C@H](C)NC(=O)[C@H](C)NC(=O)[C@]1(C)CCCCCCCCCCC[C@@](C)(NC(=O)[C@H](Cc2ccccc2)NC(=O)[C@@H](NC(=O)[C@H](CC(C)C)NC(C)=O)[C@@H](C)O)C(=O)N[C@@H](C)C(=O)N[C@@H](Cc2ccc(O)cc2)C(=O)N[C@@H](Cc2c[nH]c3ccccc23)C(=O)N[C@@H](C)C(=O)N[C@@H](CCC(N)=O)C(=O)N[C@@H](CC(C)C)C(=O)N1)C(=O)N[C@@H](C)C(N)=O [compound 444]	–	–	–	< 5
CC(=O)N[C@@H](CC(C)C)C(=O)N[C@H](C(=O)N[C@@H](Cc1ccccc1)C(=O)N[C@]1(C)CCCCCCCCCCC[C@@](C)(C(=O)N[C@@H](C)C(=O)N[C@@H](C)C(=O)N[C@@H](C)C(=O)N[C@@H](C)C(=O)N[C@@H](C)C(=O)N[C@H](C)C(N)=O)NC(=O)[C@H](CC(C)C)NC(=O)[C@H](CCC(N)=O)NC(=O)[C@H](C)NC(=O)[C@H](Cc2c[nH]c3ccccc23)NC(=O)[C@H](Cc2ccc(O)cc2)NC(=O)[C@H](CCC(=O)O)NC1=O)[C@@H](C)O [compound 445]	–	–	–	5 to 15
